From patent US20260158056A1, “USE OF LOW MOLECULAR WEIGHT HYALURONIC ACID FOR THE TREATMENT OF LUNG MUCOSAL INFLAMMATION” (INSTITUT NATIONAL DE LA SANTÉ ET DE LA RECHERCHE MÉDICALE, priority 2021, published 2026)

Key:
[1] = system: IL-8 secreted by non-CF human airway epithelial cells; assay: IL-8 ELISA, non-CF airway epithelial cells cultured at the air-liquid interface (ALI); type: cell-based; conditions: FIG. 11, 14; 1 mg/mL from ALI creation, ALI day 15, vs control condition; n=1 non-CF patient
Procedure: (§1) FIG. 11: Measurement by ELISA assay of the pro-inflammatory chemokine IL-8 secreted by non-CF human airway epithelial cells cultured at the air-liquid interface (ALI). Airway epithelial cells were seeded in bi-compartmental chambers and cultured in liquid-liquid condition until confluence was reached. At confluence, culture medium from the upper chamber was removed to create an air-liquid interface (ALI) that will favor epithelial cell differentiation. From the ALI creation, the different treatments (15-45 kDa sodium-hyaluronic acid (HA-Na 15-45 kDa) (ARD—Pomacle—France—as prepared according to WO2004050187), 15-30 kDa sodium-hyaluronic acid (HA-Na 15-30 kDa) (Sigma Aldrich), or 30-50 kDa sodium-hyaluronic acid (HA-Na 30-50 kDa) (Sigma Aldrich)) were added at 1 mg/mL to the culture medium in the basal chamber. The culture medium was renewed three times a week. At ALI day 15, the culture medium was replaced by fresh medium without any treatment. After a 4 h-period, this culture medium was collected and the IL-8 content was determined by ELISA assay. n=1 non-CF patient. p<0.001 (***); p<0.01 (**); p<0.05 (*). ns: non-significant.
(§2) FIG. 14: Measurement by ELISA assay of the pro-inflammatory chemokine IL-8 secreted by non-CF human airway epithelial cells cultured at the air-liquid interface (ALI). Airway epithelial cells were seeded in bi-compartmental chambers and cultured in liquid-liquid condition until confluence was reached. At confluence, culture medium from the upper chamber was removed to create an air-liquid interface (ALI) that will favor epithelial cell differentiation. From the ALI creation, the different treatments (15-45 kDa sodium-hyaluronic acid (HA-Na 15-45 kDa) (ARD—Pomacle—France—as prepared according to WO2004050187), 15-45 kDa calcium-hyaluronic acid (HA-Ca 15-45 kDa; ARD) or 15-45 kDa potassium-hyaluronic acid (HA-K 15-45 kDa; ARD) were added at 1 mg/mL to the culture medium in the basal chamber. The culture medium was renewed three times a week. At ALI day 15, the culture medium was replaced by fresh medium without any treatment. After a for 4 h-period, this culture medium was collected and the IL-8 content was determined by ELISA assay. n=1 non-CF patient. p<0.001 (***); p<0.01 (**); p<0.05 (*). ns: non-significant.

[2] = system: IL-8 secreted by F508del/F508del CF human airway epithelial cells; assay: IL-8 ELISA, CF airway epithelial cells cultured at the air-liquid interface (ALI), treatment during regeneration and differentiation; type: cell-based
Procedure: as §1, with “1:” for “11:”, “F508del/F508del CF” for “non-CF”, “Aldrich)” for “Aldrich),”, “Aldrich)” for “Aldrich))”, “n=5 different F508del/F508del CF patients.” for “n=1 non-CF patient.”
as §2, with “FIG. 4: Measurement by” for “FIG. 14: Measurement by”, “secreted by F508del/F508del CF human airway” for “secreted by non-CF human airway”, “15-45 kDa; ARD), or 15-45” for “15-45 kDa; ARD) or 15-45”, “After a 4 h-period,” for “After a for 4 h-period,”, “ELISA assay. n=4 different F508del/F508del CF patients. p<0.001 (***);” for “ELISA assay. n=1 non-CF patient. p<0.001 (***);”, “(*). ns: Non-significant.” for “(*). ns: non-significant.”
FIG. 7: Measurement by ELISA assay of the pro-inflammatory chemokine IL-8 secreted by F508del/F508del CF human airway epithelial cells cultured at the air-liquid interface (ALI). Airway epithelial cells were seeded in bi-compartmental chambers and cultured in liquid-liquid condition until confluence was reached. At confluence, culture medium from the upper chamber was removed to create an air-liquid interface (ALI) that will favor epithelial cell differentiation. From the ALI creation, 15-45 kDa sodium-hyaluronic acid (HA-Na 15-45 kDa) (ARD—Pomacle—France—as prepared according to WO2004050187) was added at 0.1 mg/mL, 0.5 mg/mL, 1 mg/mL and 2 mg/mL to the culture medium in the basal chamber. The culture medium was renewed three times a week. At ALI day 15, the culture medium was replaced by fresh medium without any treatment. After a 4 h-period, this culture medium was collected and the IL-8 content was determined by ELISA assay. n=3 different F508del/F508del CF patients. p<0.001 (***); p<0.01 (**); p<0.05 (*). ns: non-significant.

[3] = FIG. 1, 1 mg/mL from ALI creation, ALI day 15, vs control condition, n=5 CF patients
[4] = FIG. 4, 1 mg/mL from ALI creation, ALI day 15, vs control condition, n=4 CF patients

Row | Substance | decrease in IL-8 secretion [1] | decrease in IL-8 secretion [2, 3] | decrease in IL-8 secretion [2, 4] | decrease in IL-8 secretion ([2]; FIG. 7, 0.1 mg/mL, ALI day 15, n=3 CF patients) | decrease in IL-8 secretion ([2]; FIG. 7, 0.5 mg/mL, ALI day 15, n=3 CF patients) | decrease in IL-8 secretion ([2]; FIG. 7, 1 mg/mL, ALI day 15, n=3 CF patients) | decrease in IL-8 secretion ([2]; FIG. 7, 2 mg/mL, ALI day 15, n=3 CF patients)
1 | 15-30 kDa sodium-hyaluronic acid [HA-Na 15-30 kDa] | 60.6% | 57% | – | – | – | – | –
2 | 15-45 kDa calcium-hyaluronic acid [HA-Ca 15-45 kDa] | 70.5% | – | 59.25% | – | – | – | –
3 | 15-45 kDa potassium-hyaluronic acid [HA-K 15-45 kDa] | 57.9% | – | – | – | – | – | –
4 | 15-45 kDa sodium-hyaluronic acid [HA-Na 15-45 kDa] | 69.7% | 52% | 55.5% | does not have anymore effect | 47.3% | 62% | 65%
5 | 30-50 kDa sodium-hyaluronic acid [HA-Na 30-50 kDa] | 66.6% | 67.2% | – | – | – | – | –
